Measurements reported in US6992085B2, “Octahydro-2H-pyrido[1,2-a]pyrazine compounds” (Les Laboratories Servier, priority 2001, dated 2006).

Target: T1, type H3 central histamine receptors (Mus musculus, UniProt P58406)
T1 construct: from tissue
Test: Cerebral dosages of N^t-methylhistamine in the NMRI mouse (ex vivo, RIA)
Conditions: NMRI mice, brain one hour after treatment, versus carrier controls
Experimental: The purpose of this study, which was carried out in accordance with the method of Taylor et al. (Biochem. […] An increase in the cerebral concentrations of N^t-methylhistamine indicates an increase in the turn-over of histamine by blockage of the type H3 central histamine receptors. […] One hour after the pharmacological treatment, the animals are sacrificed, and their brains are removed, frozen in liquid nitrogen, weighed and homogenised in 0.1N HClO4 at 4° C. […] The supernatants are recovered and divided into aliquots. The aliquots are frozen in liquid nitrogen and stored at −80° C. until analysis. Determination of the cerebral levels of N^t-methylhistamine is carried out by radioimmunological assay (RIA) using an assay kit. The tissue levels of N^t-methylhistamine are expressed in μg/g of fresh brain. The comparison of the cerebral levels of N^t-methylhistamine between animals treated with the carrier (controls) and animals treated with compounds of the present invention is carried out by single factor variance analysis followed, if necessary, by a complementary analysis (Dunnett test).

T1 sequence (P58406 whole entry): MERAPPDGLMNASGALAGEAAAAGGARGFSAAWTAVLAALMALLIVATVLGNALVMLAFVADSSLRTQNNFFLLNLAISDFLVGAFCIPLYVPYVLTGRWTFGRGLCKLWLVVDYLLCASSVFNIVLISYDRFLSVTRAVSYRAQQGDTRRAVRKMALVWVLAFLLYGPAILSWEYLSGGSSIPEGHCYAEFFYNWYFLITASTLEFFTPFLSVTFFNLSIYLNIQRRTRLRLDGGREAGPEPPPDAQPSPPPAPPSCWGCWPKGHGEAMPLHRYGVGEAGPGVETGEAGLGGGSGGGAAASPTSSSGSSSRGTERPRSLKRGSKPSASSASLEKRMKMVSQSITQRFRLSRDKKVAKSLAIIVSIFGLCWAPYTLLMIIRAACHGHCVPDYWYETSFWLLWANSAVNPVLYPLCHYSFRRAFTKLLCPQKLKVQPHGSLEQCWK

increase in endogenous cerebral concentrations of N^t-methylhistamine (30 mg/kg IP) [%] | Compound | further results
 | N#Cc1ccc(OCCCN2CCN3CCCCC3C2)cc1.O=C(O)/C=C/C(=O)O.O=C(O)/C=C/C(=O)O (single isomer, unassigned) [Example 58, 4-(3-octahydro-2H-pyrido[1,2-a]pyrazin-2-ylpropoxy)benzonitrile difumarate, enantiomer β] | increase in endogenous cerebral concentrations of N^t-methylhistamine (10 mg/kg IP, 10 mg/kg): 236%
89 | Cl.Cl.Cl.c1ccc2c(c1)ncn2CCCCN1CCN2CCCCC2C1 (stereo not shown) [Example 53, 2-[4-(1H-Benzimidazol-1-yl)butyl]octahydro-2H-pyrido[1,2-a]pyrazine trihydrochloride] | 
124 | Cl.Cl.c1ccc2c(c1)cnn2CCCCN1CCN2CCCCC2C1 (stereo not shown) [Example 55, 2-[4-(1H-Indazol-1-yl)butyl]octahydro-2H-pyridol[1,2-a]pyrazine dihydrochloride] | 
 | N#Cc1ccc(OCCCN2CCN3CCCCC3C2)cc1.O=C(O)/C=C/C(=O)O.O=C(O)/C=C/C(=O)O (stereo not shown) [Example 56, 4-(3-Octahydro-2H-pyrido[1,2-a]pyrazin-2-ylpropoxy)benzonitrile difumarate] | increase in endogenous cerebral concentrations of N^t-methylhistamine (10 mg/kg IP, difumarate, 10 mg/kg): 252%
